Results from US8946142B2, “Beta-arrestin effectors and compositions and methods of use thereof” (Trevena, Inc., priority 2012, dated 2015).
Where a SMILES comes first, the peptide text is derived from it. [ ]: non-standard residue; d: D form. Tle = CC(C)(C)[C@H](N)C(=O)O; Ac6c = NC1(C(=O)O)CCCCC1; Sar = CNCC(=O)O

Tests used:
Assay type in all cases: cell-based
rat AT1aR [1] = target: T1, rat AT1aR (Rattus norvegicus, UniProt P25095); experiment: beta-arrestin2 recruitment assay (PathHunter), rat AT1aR; conditions: for Emax: 1 h, read-out: Span (relative to hAngII)
T1 sequence (P25095 1-359): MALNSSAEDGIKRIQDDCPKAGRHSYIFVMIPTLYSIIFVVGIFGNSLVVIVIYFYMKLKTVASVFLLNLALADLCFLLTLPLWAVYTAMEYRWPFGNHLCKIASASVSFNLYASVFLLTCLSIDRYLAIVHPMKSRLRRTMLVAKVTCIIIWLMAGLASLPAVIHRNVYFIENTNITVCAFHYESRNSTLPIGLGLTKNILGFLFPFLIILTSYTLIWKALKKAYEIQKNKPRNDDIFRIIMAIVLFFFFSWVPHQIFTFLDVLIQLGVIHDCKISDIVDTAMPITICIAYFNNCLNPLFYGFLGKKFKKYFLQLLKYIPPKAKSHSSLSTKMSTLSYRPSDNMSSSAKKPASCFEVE
Summary of the method: (§1)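 Luminescence, in arbitrary units, read after 60 min room-temperature detection reflects β-arrestin-2 recruitment to human AT1R or rat AT1aR stably expressed in PathHunter HEK293 clones. Cells were exposed to peptides from 1 pM to 100 μM final in HEPES-buffered HBSS for 60 min at 37 °C.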

rat AT1aR [2] = target: T1, rat AT1aR; experiment: IP1 accumulation assay (IP1 G-protein assay), rat AT1aR; conditions: for Emax: read-out: Span (relative to hAngII)
human AT1R [3] = target: T2, human AT1R (Homo sapiens, UniProt P30556); experiment: IP1 accumulation assay (IP1 G-protein assay), human AT1R; conditions: for Emax: read-out: Span (relative to hAngII)
T2 sequence (P30556 1-359): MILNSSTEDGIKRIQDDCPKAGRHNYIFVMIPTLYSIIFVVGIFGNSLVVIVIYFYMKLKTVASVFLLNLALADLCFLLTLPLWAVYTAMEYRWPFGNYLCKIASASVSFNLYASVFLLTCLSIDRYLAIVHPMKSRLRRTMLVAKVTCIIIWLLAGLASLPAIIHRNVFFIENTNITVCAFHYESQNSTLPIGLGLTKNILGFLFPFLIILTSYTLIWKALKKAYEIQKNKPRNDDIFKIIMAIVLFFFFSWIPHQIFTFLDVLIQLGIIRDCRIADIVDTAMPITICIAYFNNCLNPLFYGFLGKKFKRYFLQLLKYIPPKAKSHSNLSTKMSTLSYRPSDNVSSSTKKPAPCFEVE

human AT1R [4] = target: T2, human AT1R; experiment: beta-arrestin2 recruitment assay (PathHunter), human AT1R; conditions: for Emax: 1 h, read-out: Span (relative to hAngII)
Summary of the method: as §1

Row | Compound | Emax (rat AT1aR [1]) | EC50 (rat AT1aR [1]; read-out: EC50) | EC50 (rat AT1aR [1]; read-out: pEC50 (converted)) | EC50 (rat AT1aR [2]; read-out: EC50) | Emax (rat AT1aR [2]) | EC50 (rat AT1aR [2]; read-out: pEC50 (converted)) | EC50 (human AT1R [3]; read-out: EC50) | Emax (human AT1R [3]) | EC50 (human AT1R [3]; read-out: pEC50 (converted)) | Emax (human AT1R [4]) | EC50 (human AT1R [4]; read-out: EC50) | EC50 (human AT1R [4]; read-out: pEC50 (converted)) | EC50 (nM) (rat AT1aR [2]) | pEC50 (rat AT1aR [2]) | EC50 (nM) (human AT1R [3]) | pEC50 (human AT1R [3])
1 | CNCC(=O)N[C@@H](CCCNC(=N)N)C(=O)N[C@H](C(=O)N[C@@H](Cc1ccc(O)cc1)C(=O)NC1(C(=O)N[C@@H](Cc2c[nH]cn2)C(=O)N2CCC[C@H]2C(=O)N[C@@H](Cc2ccc(O)cc2)C(=O)O)CCCCC1)C(C)C [SEQ ID NO: 55, Sar-Arg-Val-Tyr-cyHex-His-Pro-Tyr] (H-[Sar]RVY[Ac6c]HPY-OH) | < 105% | > 3.2 nM | > 3.16 nM | > 0.6 nM | < 104% | > 0.631 nM | > 1.3 nM | < 103% | > 0.631 nM | < 101% | > 3.2 nM | > 3.16 nM | – | – | – | –
2 | CNCC(=O)N[C@@H](CCCNC(=N)N)C(=O)N[C@H](C(=O)N[C@@H](Cc1ccc(O)cc1)C(=O)NC1(C(=O)N[C@@H](Cc2c[nH]cn2)C(=O)N2CCC[C@H]2C(=O)N[C@H](C(=O)O)C(C)(C)C)CCCCC1)C(C)C [SEQ ID NO: 56, Sar-Arg-Val-Tyr-cyHex-His-Pro-AA02] (H-[Sar]RVY[Ac6c]HP[Tle]-OH) | < 105% | > 3.2 nM | > 3.16 nM | > 0.6 nM | < 104% | > 0.631 nM | > 1.3 nM | < 103% | > 0.631 nM | < 101% | > 3.2 nM | > 3.16 nM | – | – | – | –
3 | CNCC(=O)N[C@@H](CCCNC(=N)N)C(=O)N[C@H](C(=O)N[C@@H](Cc1ccc(O)cc1)C(=O)NC1(C(=O)N[C@@H](Cc2c[nH]cn2)C(=O)N2CCC[C@H]2C(=O)N[C@H](C)C(=O)O)CCCCC1)C(C)C [SEQ ID NO: 57, Sar-Arg-Val-Tyr-cyHex-His-Pro-D-Ala] | < 105% | > 3.2 nM | > 3.16 nM | – | – | – | – | – | – | < 101% | > 3.2 nM | > 3.16 nM | Inactive | Inactive | Inactive | Inactive
4 | CC[C@H](C)[C@@H](C(=O)N[C@@H](Cc1c[nH]cn1)C(=O)N1CCC[C@H]1C(=O)N[C@@H](C)C(=O)O)N(C)C(=O)[C@H](Cc1ccc(O)cc1)NC(=O)[C@@H](NC(=O)[C@H](CCCNC(=N)N)NC(=O)CNC)C(C)C [SEQ ID NO: 58, Sar-Arg-Val-Tyr-NMeIle-His-Pro-Ala] | < 105% | > 3.2 nM | > 3.16 nM | > 0.6 nM | < 104% | > 0.631 nM | – | – | – | < 101% | > 3.2 nM | > 3.16 nM | – | – | Inactive | Inactive
5 | CNCC(=O)N[C@@H](CCCNC(=N)N)C(=O)N[C@H](C(=O)N[C@@H](Cc1ccc(O)cc1)C(=O)NC1(C(=O)N[C@@H](Cc2c[nH]cn2)C(=O)N2CCC[C@H]2C(=O)N[C@H](C)C(=O)O)CCCC1)C(C)C [SEQ ID NO: 59, Sar-Arg-Val-Tyr-cyPen-His-Pro-D-Ala] | < 105% | > 3.2 nM | > 3.16 nM | > 0.6 nM | < 104% | > 0.631 nM | – | – | – | < 101% | > 3.2 nM | > 3.16 nM | – | – | Inactive | Inactive
6 | CNCC(=O)N[C@@H](CCCNC(=N)N)C(=O)N[C@H](C(=O)N[C@@H](Cc1ccc(O)cc1)C(=O)N1CCC[C@H]1C(=O)N[C@@H](Cc1c[nH]cn1)C(=O)N1CCC[C@H]1C(=O)N[C@H](C)C(=O)O)C(C)C [SEQ ID NO: 60, Sar-Arg-Val-Tyr-Pro-His-Pro-D-Ala] (H-[Sar]RVYPHP[dA]-OH) | < 105% | > 3.2 nM | > 3.16 nM | > 0.6 nM | < 104% | > 0.631 nM | > 1.3 nM | < 103% | > 0.631 nM | < 101% | > 3.2 nM | > 3.16 nM | – | – | – | –
